Assays:
Assay in all cases: relative viability (nuclei count vs DMSO), 5 days (fraction); higher = more cells survive
[1] = compound: C1CSC2=C(C(=O)N1)SC3=C2C=C(C=C3)O [kb NB 142-70] + O=C(c1cc(Cc2n[nH]c(=O)c3ccccc23)ccc1F)N1CCN(C(=O)C2CC2)CC1 [Olaparib] (partner 8 µM)
Outline: (§1)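 Medians of duplicate plates are given as relative viability. That measure is the nuclei count in treated wells divided by the count in vehicle wells. Counts were taken on 4× images of lung cancer cell lines in 1536-well plates, 5 days after pin-tool dosing the day after seeding with one drug alone or a fixed anchor-drug dose plus five library-drug doses (not always all listed) in √10 steps.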

[2] = compound: NCC(=O)Nc1ccc(-n2nc(C(F)(F)F)cc2-c2ccc3c(ccc4ccccc43)c2)cc1 + NC(=O)Nc1cc(-c2cccc(F)c2)sc1C(=O)N[C@H]1CCCNC1 [AZD7762] (partner 0.2 µM)
Outline: as §1

[3] = compound: C1CSC2=C(C(=O)N1)SC3=C2C=C(C=C3)O [kb NB 142-70] + CC(C)C[C@H](NC(=O)[C@H](Cc1ccccc1)NC(=O)c1cnccn1)B(O)O [Bortezomib] (partner 0.002 µM)
Outline: as §1

[4] = compound: NCC(=O)Nc1ccc(-n2nc(C(F)(F)F)cc2-c2ccc3c(ccc4ccccc43)c2)cc1 + CS(=O)(=O)N1CCN(Cc2cc3nc(-c4cccc5[nH]ncc45)nc(N4CCOCC4)c3s2)CC1 [Pictilisib] (partner 1 µM)
Outline: as §1

[5] = compound: C1CSC2=C(C(=O)N1)SC3=C2C=C(C=C3)O [kb NB 142-70] + CCNC(=O)c1noc(-c2cc(C(C)C)c(O)cc2O)c1-c1ccc(CN2CCOCC2)cc1 [Luminespib] (partner 0.01 µM)
Outline: as §1

Row | Cell Line | relative viability ([1]; first compound 0.1 µM) | relative viability ([1]; first compound 1 µM) | relative viability ([1]; first compound 3.162 µM) | relative viability ([2]; first compound 0.02 µM) | relative viability ([2]; first compound 0.06325 µM) | relative viability ([2]; first compound 0.2 µM) | relative viability ([2]; first compound 0.6325 µM) | relative viability ([2]; first compound 2 µM) | relative viability ([3]; first compound 0.1 µM) | relative viability ([3]; first compound 1 µM) | relative viability ([3]; first compound 3.162 µM) | relative viability ([4]; first compound 0.02 µM) | relative viability ([4]; first compound 0.06325 µM) | relative viability ([4]; first compound 0.2 µM) | relative viability ([4]; first compound 0.6325 µM) | relative viability ([4]; first compound 2 µM) | relative viability ([5]; first compound 0.1 µM) | relative viability ([5]; first compound 1 µM) | relative viability ([5]; first compound 3.162 µM)
1 | HCC-78 | 0.791 | 0.773 | 0.83 | 0.77 | 0.597 | 0.599 | 0.668 | 0.642 | 0.486 | 0.543 | 0.556 | 0.208 | 0.245 | 0.216 | 0.205 | 0.203 |  |  | 
2 | IA-LM | 0.841 | 0.771 | 0.807 |  |  |  |  |  | 0.765 | 1.06 | 0.647 | 0.444 | 0.356 | 0.302 | 0.477 | 0.288 |  |  | 
3 | COR-L23 | 0.344 | 0.442 | 0.263 |  |  |  |  |  | 0.872 | 0.913 | 0.51 | 0.712 | 0.767 | 0.95 | 0.798 | 0.613 | 0.665 | 0.524 | 0.159
4 | NCI-H1793 | 0.88 | 1.02 | 0.508 | 0.434 | 0.568 | 0.573 | 0.447 | 0.742 |  |  |  | 0.263 | 0.401 | 0.343 | 0.455 | 0.349 | 0.188 | 0.179 | 0.153
5 | NCI-H2023 | 0.51 | 0.504 | 0.312 |  |  |  |  |  | 1.09 | 1.02 | 0.668 | 0.229 | 0.232 | 0.201 | 0.207 | 0.242 | 0.747 | 0.661 | 0.272
6 | COR-L 105 | 0.82 | 0.637 | 0.726 |  |  |  |  |  | 0.871 | 0.828 | 0.903 | 0.426 | 0.357 | 0.423 | 0.363 | 0.391 | 0.603 | 0.634 | 0.712
7 | NCI-H520 | 0.377 | 0.35 | 0.228 |  |  |  |  |  | 0.52 | 0.541 | 0.277 | 0.351 | 0.265 | 0.323 | 0.277 | 0.277 | 0.255 | 0.247 | 0.214
8 | SK-LU-1 | 0.423 | 0.396 | 0.271 |  |  |  |  |  | 1.19 | 1.05 | 0.839 | 0.651 | 0.604 | 0.581 | 0.479 | 0.623 | 0.198 | 0.199 | 0.204
9 | NCI-H2342 | 0.397 | 0.458 | 0.408 | 0.666 | 0.633 | 0.502 | 0.449 | 0.558 |  |  |  |  |  |  |  |  | 0.625 | 0.761 | 0.719
10 | NCI-H1299 | 1.02 | 0.949 | 0.837 |  |  |  |  |  | 1.01 | 1.07 | 1.05 | 0.346 | 0.8 | 0.804 | 0.781 | 0.732 |  |  | 
11 | NCI-H1650 | 0.9 | 0.881 | 0.854 |  |  |  |  |  | 0.179 | 0.206 | 0.203 | 0.616 | 0.656 | 0.215 | 0.652 | 0.556 | 0.204 | 0.19 | 0.18
12 | NCI-H2009 | 0.721 | 0.724 | 0.611 |  |  |  |  |  | 1.09 | 1.05 | 0.638 | 0.734 | 0.906 | 0.819 | 0.86 | 0.967 | 1.15 | 1.05 | 0.685
13 | SW 900 | 0.906 | 1.14 | 0.789 | 0.635 | 0.558 | 0.701 | 0.659 | 0.655 |  |  |  |  |  |  |  |  | 0.187 | 0.181 | 0.177
14 | SK-MES-1 | 0.719 | 0.484 | 0.181 |  |  |  |  |  |  |  |  | 0.382 | 0.313 | 0.334 | 0.355 | 0.42 | 0.84 | 0.743 | 0.35
15 | NCI-H1648 | 0.645 | 0.707 | 0.738 | 0.893 | 0.598 | 0.74 | 0.663 | 0.588 |  |  |  |  |  |  |  |  |  |  | 
16 | NCI-H522 | 0.69 | 0.587 | 0.509 | 0.609 | 1.09 | 0.815 | 0.888 | 0.828 |  |  |  |  |  |  |  |  | 1.18 | 1.03 | 0.974
17 | LK-2 | 0.822 | 0.551 | 0.323 | 0.459 | 0.47 | 0.402 | 0.493 | 0.381 |  |  |  | 0.536 | 0.669 | 0.462 | 0.577 | 0.616 | 0.206 | 0.215 | 0.173
18 | HCC-366 | 0.371 | 0.509 | 0.443 | 0.236 | 0.205 | 0.31 | 0.276 | 0.333 | 1.07 | 0.926 | 1.12 | 0.147 | 0.205 | 0.174 | 0.172 | 0.141 |  |  | 
19 | NCI-H1395 | 0.45 | 0.492 | 0.43 | 0.373 | 0.421 | 0.37 | 0.407 | 0.38 |  |  |  | 0.648 | 0.641 | 0.581 | 0.563 | 0.642 | 0.79 | 0.69 | 0.464
20 | A549 | 0.305 | 0.363 | 0.155 |  |  |  |  |  |  |  |  | 0.459 | 0.495 | 0.564 | 0.565 | 0.517 |  |  | 
21 | NCI-H2170 | 0.661 | 0.596 | 0.543 | 0.87 | 0.907 | 0.94 | 0.911 | 0.86 |  |  |  | 0.233 | 0.325 | 0.319 | 0.328 | 0.323 | 0.578 | 0.728 | 0.521
22 | NCI-H661 | 0.731 | 0.733 | 0.759 |  |  |  |  |  | 0.808 | 0.805 | 0.802 | 0.453 | 0.389 | 0.357 | 0.325 | 0.407 | 0.905 | 0.845 | 0.805
23 | NCI-H1563 |  |  |  |  |  |  |  |  | 0.921 | 0.84 | 0.956 | 0.69 | 0.683 | 0.669 | 0.611 | 0.622 | 0.597 | 0.498 | 0.538

Source: the supplement of paper PMC10307832
